Assay results: ChEMBL document CHEMBL4007464, “Lead Development of Thiazolylsulfonamides with Carbonic Anhydrase Inhibitory Action” (J Med Chem, 2017)
pIC50, pKi: −log10 of the molar value.

Assays:
[1] = biological target: Carbonic anhydrase 9 (Homo sapiens, UniProt Q16790); assay: Inhibition of recombinant human Carbonic anhydrase 9 assessed as reduction in CO2 hydration preincubated for 15 mins prior to testing measured for 10 to 100 secs by stopped-flow assay
[2] = biological target: Carbonic anhydrase 1 (Homo sapiens, UniProt P00915); assay: Inhibition of recombinant human Carbonic anhydrase 1 assessed as reduction in CO2 hydration preincubated for 15 mins prior to testing measured for 10 to 100 secs by stopped-flow assay
Carbonic anhydrase 1, sequence (P00915 whole entry): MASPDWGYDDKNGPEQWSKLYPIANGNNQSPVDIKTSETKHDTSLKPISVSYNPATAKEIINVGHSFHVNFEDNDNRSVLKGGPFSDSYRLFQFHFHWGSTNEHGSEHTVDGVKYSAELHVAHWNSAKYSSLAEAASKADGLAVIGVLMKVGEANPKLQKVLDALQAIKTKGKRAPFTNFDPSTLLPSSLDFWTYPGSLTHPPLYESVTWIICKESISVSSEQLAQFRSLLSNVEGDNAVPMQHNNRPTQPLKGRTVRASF

[3] = biological target: Carbonic anhydrase 2 (Homo sapiens, UniProt P00918); assay: Inhibition of recombinant human Carbonic anhydrase 2 assessed as reduction in CO2 hydration preincubated for 15 mins prior to testing measured for 10 to 100 secs by stopped-flow assay
[4] = biological target: Carbonic anhydrase 5A, mitochondrial (Homo sapiens, UniProt P35218); assay: Inhibition of recombinant human Carbonic anhydrase 5A assessed as reduction in CO2 hydration preincubated for 15 mins prior to testing measured for 10 to 100 secs by stopped-flow assay
Carbonic anhydrase 5A, mitochondrial, sequence (P35218 whole entry): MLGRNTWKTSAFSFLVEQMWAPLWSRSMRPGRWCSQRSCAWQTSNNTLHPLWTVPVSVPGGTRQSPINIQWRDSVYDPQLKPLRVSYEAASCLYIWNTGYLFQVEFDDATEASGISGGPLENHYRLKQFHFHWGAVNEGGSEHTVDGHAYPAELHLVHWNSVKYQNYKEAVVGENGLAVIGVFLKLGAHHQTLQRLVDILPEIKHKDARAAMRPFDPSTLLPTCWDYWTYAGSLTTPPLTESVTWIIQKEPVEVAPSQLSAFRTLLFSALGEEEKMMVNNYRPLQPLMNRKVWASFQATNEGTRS

[5] = biological target: Carbonic anhydrase 5B, mitochondrial (Homo sapiens, UniProt Q9Y2D0); assay: Inhibition of recombinant human Carbonic anhydrase 5B assessed as reduction in CO2 hydration preincubated for 15 mins prior to testing measured for 10 to 100 secs by stopped-flow assay
Carbonic anhydrase 5B, mitochondrial, sequence (Q9Y2D0 whole entry): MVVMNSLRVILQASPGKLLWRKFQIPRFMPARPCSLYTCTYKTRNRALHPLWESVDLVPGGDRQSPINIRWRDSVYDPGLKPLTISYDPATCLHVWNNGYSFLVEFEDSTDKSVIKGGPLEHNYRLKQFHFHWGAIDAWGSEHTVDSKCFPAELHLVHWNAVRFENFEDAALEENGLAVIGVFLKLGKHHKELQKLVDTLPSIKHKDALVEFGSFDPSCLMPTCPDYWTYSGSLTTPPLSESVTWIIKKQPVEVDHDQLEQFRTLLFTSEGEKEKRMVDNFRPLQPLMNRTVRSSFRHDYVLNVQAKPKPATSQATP

[6] = biological target: Carbonic anhydrase 12 (Homo sapiens, UniProt O43570); assay: Inhibition of recombinant human Carbonic anhydrase 12 assessed as reduction in CO2 hydration preincubated for 15 mins prior to testing measured for 10 to 100 secs by stopped-flow assay
Carbonic anhydrase 12, sequence (O43570 whole entry): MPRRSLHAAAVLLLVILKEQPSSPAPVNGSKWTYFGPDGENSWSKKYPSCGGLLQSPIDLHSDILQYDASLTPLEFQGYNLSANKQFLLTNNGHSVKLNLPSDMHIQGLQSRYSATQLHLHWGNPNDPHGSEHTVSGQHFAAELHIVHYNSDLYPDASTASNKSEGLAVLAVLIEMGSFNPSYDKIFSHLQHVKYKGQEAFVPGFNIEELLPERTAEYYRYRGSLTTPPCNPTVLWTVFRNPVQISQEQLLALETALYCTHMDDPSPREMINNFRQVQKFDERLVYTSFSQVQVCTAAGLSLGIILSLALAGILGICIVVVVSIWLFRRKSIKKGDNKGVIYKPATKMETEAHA

[7] = Inhibition of carbonic anhydrase in mouse whole blood assessed as reduction in CO2 hydration preincubated for 15 mins prior to testing measured for 10 to 100 secs by stopped-flow assay
[8] = Inhibition of carbonic anhydrase in rat whole blood assessed as reduction in CO2 hydration preincubated for 15 mins prior to testing measured for 10 to 100 secs by stopped-flow assay
[9] = Inhibition of carbonic anhydrase in human whole blood assessed as reduction in CO2 hydration preincubated for 15 mins prior to testing measured for 10 to 100 secs by stopped-flow assay

**Q.** With Cc1nc(N(C(=O)Cc2ccc(-c3ccccc3)cc2)C2CC2)sc1S(N)(=O)=O as the compound, how does the pKi [1] read?
**A.** Its pKi is 9.00.

**Q.** With CNS(=O)(=O)c1sc(N(C)C(=O)Cc2ccc(-c3ccccc3F)cc2)nc1C as the compound, how does the pKi [1] read?
**A.** Its pKi is 7.59.

**Q.** With Cc1nc(N(C)C(=O)Cc2ccc(-c3cnccn3)cc2)sc1S(N)(=O)=O as the compound, how does the pKi [1] read?
**A.** Its pKi is 7.16.

**Q.** With Cc1nc(N(C)C(=O)Cc2ccc(-c3ccccc3)cc2)sc1S(N)(=O)=O as the compound, how does the pKi [1] read?
**A.** The pKi was 9.05.

**Q.** With Cc1nc(N(C)C(=O)Cc2ccc(-n3cccn3)cc2)sc1S(N)(=O)=O as the compound, how does the pKi [1] read?
**A.** The pKi was 7.46.

**Q.** With Cc1nc(N(C)C(=O)Cc2ccc(-c3ccccn3)cc2)sc1S(N)(=O)=O [PRITELIVIR] as the compound, how does the pKi [2] read?
**A.** The pKi was 6.49.

**Q.** And the pKi [3]?
**A.** Its pKi is 7.89.

**Q.** And the pKi [4]?
**A.** The pKi was 6.32.

**Q.** And the pKi [5]?
**A.** Its pKi is 6.41.

**Q.** What about the pKi [1] of the same compound?
**A.** Its pKi is 7.09.

**Q.** And the pKi [6]?
**A.** The pKi was 7.11.

**Q.** And the pIC50 [7]?
**A.** The pIC50 was 6.87.

**Q.** What about the pIC50 [8] of the same compound?
**A.** Its pIC50 is 6.94.

**Q.** What about the pIC50 [9] of the same compound?
**A.** The pIC50 was 7.19.

**Q.** With CNS(=O)(=O)c1sc(N(C)C(=O)Cc2ccc(-c3ccccc3)cc2)nc1C as the compound, how does the pKi [1] read?
**A.** Its pKi is 7.39.

**Q.** With Cc1nc(N(CCN(C)C)C(=O)Cc2ccc(-c3ccccc3)cc2)sc1S(N)(=O)=O as the compound, how does the pKi [1] read?
**A.** The pKi was 7.66.

**Q.** With CN(C(=O)Cc1ccc(-c2ccccn2)cc1)c1nc(CO)c(S(N)(=O)=O)s1 as the compound, how does the pKi [1] read?
**A.** The pKi was 7.37.

**Q.** With CNS(=O)(=O)c1sc(N(CCN(C)C)C(=O)Cc2ccc(-c3ccccc3)cc2)nc1C as the compound, how does the pKi [1] read?
**A.** The pKi was 7.85.

**Q.** What does the source list for Cc1nc(N(C)C(=O)Cc2ccc(-c3ccccn3)cc2)sc1S(N)(=O)=O?
**A.** pKi [2]: 6.58; pKi [3]: 7.85; pKi [4]: 6.09; pKi [5]: 6.60; pKi [1]: 6.33; pKi [6]: 7.21

**Q.** With Cc1nc(N(C)C(=O)Cc2ccc(-c3cc(F)ccc3F)cc2)sc1S(N)(=O)=O as the compound, how does the pKi [1] read?
**A.** Its pKi is 7.29.

**Q.** With Cc1nc(N(C)C(=O)Cc2ccc(-c3cccc[n+]3C)cc2)sc1S(N)(=O)=O as the compound, how does the pKi [1] read?
**A.** Its pKi is 6.58.

**Q.** With Cc1nc(N(C)C(=O)Cc2ccc(-c3ccccc3F)cc2)sc1S(N)(=O)=O as the compound, how does the pKi [1] read?
**A.** The pKi was 8.00.

**Q.** With Cc1nc(N(C)C(=O)Cc2ccc(-c3cccc(F)c3)cc2)sc1S(N)(=O)=O as the compound, how does the pKi [1] read?
**A.** The pKi was 9.05.

**Q.** With CNS(=O)(=O)c1sc(N(C)C(=O)Cc2ccc(-c3ccccn3)cc2)nc1C as the compound, how does the pKi [1] read?
**A.** The pKi was 7.61.

**Q.** With Cc1nc(N(C)C(=O)Cc2ccc(-c3ccccc3)cc2)sc1S(=O)(=O)NCCO as the compound, how does the pKi [1] read?
**A.** Its pKi is 7.35.

**Q.** With COc1c(F)cccc1-c1ccc(CC(=O)N(C)c2nc(C)c(S(N)(=O)=O)s2)cc1 as the compound, how does the pKi [1] read?
**A.** Its pKi is 7.66.

**Q.** With CCc1nc(N(C)C(=O)Cc2ccc(-c3ccccn3)cc2)sc1S(N)(=O)=O as the compound, how does the pKi [1] read?
**A.** The pKi was 7.55.
